# In paper PMC5698177 (Nature chemical biology, 2017):
# Test system: chPylRS
# Assay: aminoacylation of […]-labeled tRNA
# Format: biochemical, Methanosarcina mazei; Methanosarcina barkeri
# Conditions: read-out: KM (mM), ncAA; M. mazei tRNA(Pyl) transcript, 10 mM ATP, 10 mM MgCl2, pH 7.2, 37 °C
row,Compound,Km [mM]
1,"C[C@@H]1CC=N[C@H]1C(=O)NCCCC[C@H](N)C(=O)O [compound 1, Pyl]",0.0076 ± 0.0002
2,"CC(C)(C)OC(=O)NCCCC[C@H](N)C(=O)O [compound 12, BocK]",2.91 ± 0.1
